Measurements from patent publication EP0828726B1, “TRICYCLIC INHIBITORS OF MATRIX METALLOPROTEINASES” (WARNER-LAMBERT COMPANY, priority 1995, dated 1996).

How the values were obtained:
[1] = molecular target: T1, gelatinase B (recombinant full-length enzyme) (Homo sapiens, UniProt P14780); experiment: Thiopeptolide substrate IC50 assay, gelatinase B; assay type: biochemical
T1 construct: gelatinase B (recombinant full-length enzyme)
Method: (§1) Experiments were carried out with both the full-length enzymes and the catalytic domains. […] IC50 values were determined using a thiopeptolide substrate, Ac-Pro-Leu-Gly-thioester-Leu-Leu-Gly-OEt (Ye Q.-Z., Johnson L.L., Hupe D.J., and Baragi V., "Purification and Characterization of the Human Stromelysin Catalytic Domain Expressed in Escherichia coli", Biochemistry, 1992;31:11231-11235). […] IC50 values for gelatinase B, and collagenase, were >100 µM.

[2] = molecular target: T2, SCD (stromelysin-1 catalytic domain) (Homo sapiens, UniProt P08254); experiment: Thiopeptolide substrate IC50 assay, stromelysin-1 catalytic domain; assay type: biochemical
T2 construct: The gene for the catalytic domain of stromelysin-1, SCD, was constructed by removing the propeptide and C-terminal domain; made in house; host or cells: Escherichia coli
Description: (§2) Matrix metalloproteinases share high sequence homology and the catalytic domains of each of the MMPs can be identified by sequence alignment. The gene for the catalytic domain of stromelysin-1, SCD, was constructed by removing the propeptide and C-terminal domain (Ye Q.-Z., Johnson L.L, Hupe D.J., and Baragi V., "Purification and Characterization of the Human Stromelysin Catalytic Domain Expressed in Escherichia coli", Biochemistry, 1992;31:11231-11235). The gelatinase A catalytic domain, GCD, was similarly constructed with the additional removal of the fibronectin-like insert which interrupts the catalytic domain (Ye Q.-Z., Johnson L.L, Yu A.E., and Hupe D., "Reconstructed 19 kDa Catalytic Domain of Gelatinase A is an Active Proteinase", Biochemistry, 1995;34:4702-4708). Both truncated proteins cleave synthetic peptide substrates and the natural substrates proteoglycan and gelatin in a manner similar to the full-length enzymes and can be used to identify matrix metalloproteinase inhibitors.
(§3) Experiments were carried out with both the full-length enzymes and the catalytic domains. […] IC50 values were determined using a thiopeptolide substrate, Ac-Pro-Leu-Gly-thioester-Leu-Leu-Gly-OEt (Ye Q.-Z., Johnson L.L., Hupe D.J., and Baragi V., "Purification and Characterization of the Human Stromelysin Catalytic Domain Expressed in Escherichia coli", Biochemistry, 1992;31:11231-11235). […]

[3] = system: Mycobacterium footpad edema; experiment: Mycobacterium footpad edema assay (MFE); assay type: in vivo, Wistar rats; conditions: in Rattus norvegicus, po, paw swelling on third day
Method: The activity of Example 2 as a general inhibitor of inflammation was tested using the Mycobacterium footpad edema assay (MFE) in Wistar rats. Compound was administered daily by gavage at 2 mg/kg, 10 mg/kg, or 50 mg/kg.
Male outbred Wistar rats (110-125 g, Charles River Labs, Portage, MI) were used in this study. Rats were housed for a minimum of 1 week before use. Food and water were supplied ad libitum. Foot pad edema was induced following the method described by Martel R.R. and Klicius J., "Comparisons in rats of the antiinflammatory and gastric irritant effects of etodolac with several clinically effective antiinflammatory drugs", Agents and Actions, 1982;12:295. Briefly, male Wistar rats were injected subcutaneously into the right hind footpad with 0.1 mL of 5 mg/mL suspension of killed and dried Mycobacterium butyricum (Difco, Detroit, MI) in liquid paraffin. Compound was suspended in 0.5% hydroxypropylmethylcellulose (HPMC) containing 0.2% Tween-80 and administered orally 1 hour before injection. Subsequent doses of the compound were given 24 and 48 hours after the Mycobacterium. Control animals were given vehicle alone. Swelling was assessed on the third day by subtracting the initial volume (determined immediately following the Mycobacterium injection) from the final volume of the treated paw. Paw volume was determined by mercury plethysmography. The percent inhibition of edema achieved in each compound-treated group was determined by comparison with swelling in the vehicle-treated group and the ID50 values were determined by regression analysis. Statistical significance between experimental groups was evaluated using a Student's t-test. […]

[4] = molecular target: T3, stromelysin-1 (full-length native enzyme) (Homo sapiens, UniProt P08254); experiment: Thiopeptolide substrate IC50 assay, full-length stromelysin-1; assay type: biochemical
T3 construct: stromelysin-1 (full-length native enzyme)
Method: as §1

[5] = molecular target: T4, GCD (recombinant gelatinase A catalytic domain) (Homo sapiens, UniProt P08253, DEL220-393); experiment: Thiopeptolide substrate IC50 assay, gelatinase A catalytic domain; assay type: biochemical
T4 construct: The gelatinase A catalytic domain, GCD, was similarly constructed with the additional removal of the fibronectin-like insert which interrupts the catalytic domain; made in house
Description: as §2, §3

[6] = molecular target: T5, gelatinase A (recombinant full-length enzyme) (Homo sapiens, UniProt P08253); experiment: Thiopeptolide substrate IC50 assay, full-length gelatinase A; assay type: biochemical
T5 construct: gelatinase A (recombinant full-length enzyme)
T5 sequence (P08253 110-660): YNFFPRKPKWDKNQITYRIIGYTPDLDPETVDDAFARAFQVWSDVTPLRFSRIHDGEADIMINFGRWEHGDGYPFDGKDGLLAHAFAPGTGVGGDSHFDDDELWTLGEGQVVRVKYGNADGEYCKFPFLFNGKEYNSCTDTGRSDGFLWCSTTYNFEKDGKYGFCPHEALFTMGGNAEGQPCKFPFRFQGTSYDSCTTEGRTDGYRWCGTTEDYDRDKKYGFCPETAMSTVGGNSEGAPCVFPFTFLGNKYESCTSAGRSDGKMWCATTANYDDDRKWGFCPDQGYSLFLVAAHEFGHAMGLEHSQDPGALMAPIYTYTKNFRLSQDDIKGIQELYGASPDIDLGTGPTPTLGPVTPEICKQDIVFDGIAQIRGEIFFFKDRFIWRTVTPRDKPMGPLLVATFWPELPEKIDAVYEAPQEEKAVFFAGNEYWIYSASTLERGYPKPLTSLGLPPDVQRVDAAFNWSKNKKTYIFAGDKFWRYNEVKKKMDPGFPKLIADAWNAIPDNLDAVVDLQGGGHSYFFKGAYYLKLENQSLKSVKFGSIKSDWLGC
Method: as §1

EAE = experiment: Experimental allergic encephalomyelitis (EAE), Lewis rat acute model; assay type: in vivo
Method: Female Lewis rats were purchased from Harlan Sprague-Dawley (Indianapolis, IN) and were used at 8 to 10 weeks of age. Active EAE was induced by injection of 0.05 mL emulsion of myelin basic protein (MBP) with complete Freund's adjuvant (CFA), containing 25 µg guinea pig MBP and 100 µg Mycobacterium butyricum (Difco Laboratories, Detroit, MI) into one hind footpad. Immunized rats were observed daily for clinical signs of EAE and scored as follows: 0, no symptoms; 1, loss of tail tonicity; 2, paresis; 3, hind limb paralysis, often accompanied by incontinence; and 4, death. Formalin-fixed brain slice sections were stained with hematoxylin-eosin and evaluated microscopically for perivascular and parenchymal infiltration. Compound was administered by gavage as a solution in sterile saline in a volume of 500 µL. […] Several different protocols were used to define the efficacy and timing requirements for potency.
Protocol 1: Compound was administered daily at 50 mg/kg beginning on Day 0 and continuing through Day 14, with MBP in CFA administered on Day 0 also. […] N = 5 for all groups.
Controls run in parallel included CFA only and MBP in CFA. N = 4 for treatment groups. N = 8 for controls.

[7] = Protocol 1: CFA + MBP, 50 mg/kg daily oral Day 0 through Day 14
[8] = Protocol 2: CFA + MBP, 10 mg/kg alternate days
[9] = Protocol 2: CFA + MBP, 50 mg/kg alternate days

T1 sequence (P14780 94-707): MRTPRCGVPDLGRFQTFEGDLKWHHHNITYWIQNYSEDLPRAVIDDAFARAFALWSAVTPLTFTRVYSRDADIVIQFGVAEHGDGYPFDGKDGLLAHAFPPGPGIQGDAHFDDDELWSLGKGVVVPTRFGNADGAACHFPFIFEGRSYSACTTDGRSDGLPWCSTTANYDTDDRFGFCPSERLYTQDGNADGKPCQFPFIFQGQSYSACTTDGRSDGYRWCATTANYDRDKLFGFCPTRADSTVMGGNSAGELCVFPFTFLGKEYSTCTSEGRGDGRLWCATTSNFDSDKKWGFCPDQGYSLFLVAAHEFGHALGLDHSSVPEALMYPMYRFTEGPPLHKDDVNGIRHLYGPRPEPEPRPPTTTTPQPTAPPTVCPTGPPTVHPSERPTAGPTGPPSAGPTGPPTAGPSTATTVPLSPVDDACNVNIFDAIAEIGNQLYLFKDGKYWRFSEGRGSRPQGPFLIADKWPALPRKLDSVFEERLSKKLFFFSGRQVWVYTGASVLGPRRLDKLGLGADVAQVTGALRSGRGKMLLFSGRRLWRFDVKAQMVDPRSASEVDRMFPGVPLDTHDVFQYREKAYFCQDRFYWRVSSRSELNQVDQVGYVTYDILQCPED
T3 sequence (P08254 100-477): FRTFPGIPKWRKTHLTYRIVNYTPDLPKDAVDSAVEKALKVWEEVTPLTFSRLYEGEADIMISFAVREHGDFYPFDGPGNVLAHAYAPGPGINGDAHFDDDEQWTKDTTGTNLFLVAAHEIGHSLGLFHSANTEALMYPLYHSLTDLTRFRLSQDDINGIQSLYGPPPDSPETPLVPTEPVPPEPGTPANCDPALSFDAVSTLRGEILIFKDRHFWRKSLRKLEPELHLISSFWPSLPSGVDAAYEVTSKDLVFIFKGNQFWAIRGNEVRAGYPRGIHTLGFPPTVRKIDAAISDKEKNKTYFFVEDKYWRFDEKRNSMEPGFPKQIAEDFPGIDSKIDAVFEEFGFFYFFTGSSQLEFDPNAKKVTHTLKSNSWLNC
T4 sequence (P08253 with tags, fused parts or gaps DEL220-393): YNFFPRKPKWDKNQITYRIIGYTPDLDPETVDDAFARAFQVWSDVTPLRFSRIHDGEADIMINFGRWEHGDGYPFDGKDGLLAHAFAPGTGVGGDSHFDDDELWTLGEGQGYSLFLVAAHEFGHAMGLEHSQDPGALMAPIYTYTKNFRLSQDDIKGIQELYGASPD
T2 sequence (P08254 100-272 limits assumed): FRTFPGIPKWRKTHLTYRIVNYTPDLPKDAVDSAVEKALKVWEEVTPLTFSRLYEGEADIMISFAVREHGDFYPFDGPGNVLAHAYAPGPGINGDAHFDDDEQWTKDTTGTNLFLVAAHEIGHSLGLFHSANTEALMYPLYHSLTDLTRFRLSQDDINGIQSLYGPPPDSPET

## O=C(O)CCC(=NO)c1ccc2oc3ccccc3c2c1 [Example 2, 4-Dibenzofuran-2-yl-4-hydroximino-butyric acid]
[1]
  IC50: > 100 µM
[2]
  IC50: 7.12 µM
[3]; 2 mg/kg daily by gavage
  inhibition at 2 mg/kg: 23%
[3]; 10 mg/kg daily by gavage
  inhibition at 10 mg/kg: 27%
[3]; 50 mg/kg daily by gavage
  inhibition at 50 mg/kg: 40%
[4]
  IC50: 7.64 µM
[5]
  IC50: 0.04 µM
[6]
  IC50: 1.31 µM
EAE; Protocol 1, 50 mg/kg daily
  treated animals showing reduction of symptoms: 20%
  treated animals showing total inhibition of symptoms: 80%
EAE; Protocol 1, 50 mg/kg daily, histology of brain slices
  leukocyte migration across the blood-brain barrier: completely prevented
EAE; Protocol 1, 50 mg/kg daily, total inhibition or reduction of symptoms
  percentage of animals responding: 100%
EAE; [7]
  Day of Peak Expression: 12
  Effect on EAE Rats (≥Paresis/ Total): 1/5
EAE; Protocol 1: CFA + MBP, 50 mg/kg daily oral Day 0 through Day 14, score 0-4, N = 5
  Clinical Grade at Peak of Disease: 1.0
EAE; Protocol 1: CFA only (no MBP), 50 mg/kg daily oral
  Effect on EAE Rats (≥Paresis/ Total): 0/5
EAE; Protocol 1: CFA only (no MBP), 50 mg/kg daily oral, N = 5
  Clinical Grade at Peak of Disease: 0
EAE; [8]
  Day of Peak Expression: 14
  Effect on EAE Rats (≥Paresis/ Total): 0/4
EAE; Protocol 2: CFA + MBP, 10 mg/kg on Day 0 and alternate days through Day 14, N = 4
  Clinical Grade at Peak of Disease: 0.6
EAE; [9]
  Day of Peak Expression: 15
  Effect on EAE Rats (≥Paresis/ Total): 0/4
EAE; Protocol 2: CFA + MBP, 50 mg/kg on Day 0 and alternate days through Day 14, N = 4
  Clinical Grade at Peak of Disease: 0.8
